Earlier results as cited in US20220296560A1, “PHARMACEUTICAL COMPOSITION FOR ORAL ADMINISTRATION IN POWDER FORMULATION CONTAINING ANTIVIRAL AGENT” (DAE HWA PHARMA. CO., LTD., priority 2019, published 2022).
Where two headings read alike, the source gives them in different places.

Conditions: in vivo

- bioavailability (inhaled or intranasal): 4-17%
- bioavailability (po): about 2%
Compound: CC(=O)N[C@H]1[C@H]([C@H](O)[C@H](O)CO)OC(C(=O)O)=C[C@@H]1N=C(N)N [zanamivir, 5-(acetylamino)-4-{[amino(imino)methyl]amino}-2,6-anhydro-3,4,5-trideoxy-D-glycero-D-galacto-non-2-enonic acid]
